According to the supplement of paper PMC10307832:

Experiments:
Experiment in all cases: relative viability (nuclei count vs DMSO), 5 days (fraction); higher = more cells survive
GW-2580 + Vorinostat = compound: COC1=CC=C(C=C1)COC2=C(C=C(C=C2)CC3=CN=C(N=C3N)N)OC [GW-2580] + O=C(CCCCCCC(=O)Nc1ccccc1)NO [Vorinostat] (partner 1 µM)
Procedure, shortened: (§1)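 Lung cancer cell lines in 1536-well plates were dosed by pin tool the day after seeding, either with one drug alone or with a fixed anchor-drug dose plus five library-drug doses (not always all listed) in √10 steps. After 5 days, cells were fixed and their nuclei stained in one step (final 0.05% Triton X-100, 1% formaldehyde, 1 ug/ml Hoechst), then counted on 4× images. Relative viability is the nuclei count in treated wells divided by that in vehicle wells. Values are medians of duplicate plates.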

Fedratinib + Luminespib = compound: Cc1cnc(Nc2ccc(OCCN3CCCC3)cc2)nc1Nc1cccc(S(=O)(=O)NC(C)(C)C)c1 [Fedratinib] + CCNC(=O)c1noc(-c2cc(C(C)C)c(O)cc2O)c1-c1ccc(CN2CCOCC2)cc1 [Luminespib] (partner 0.01 µM)
Procedure, shortened: as §1

Fedratinib + OSI-027 = compound: Cc1cnc(Nc2ccc(OCCN3CCCC3)cc2)nc1Nc1cccc(S(=O)(=O)NC(C)(C)C)c1 [Fedratinib] + COc1cccc2cc(-c3nc([C@H]4CC[C@H](C(=O)O)CC4)n4ncnc(N)c34)[nH]c12 [OSI-027] (partner 0.5 µM)
Procedure, shortened: as §1

Fedratinib + Linsitinib = compound: Cc1cnc(Nc2ccc(OCCN3CCCC3)cc2)nc1Nc1cccc(S(=O)(=O)NC(C)(C)C)c1 [Fedratinib] + C[C@]1(O)C[C@@H](c2nc(-c3ccc4ccc(-c5ccccc5)nc4c3)c3c(N)nccn32)C1 [Linsitinib] (partner 1 µM)
Procedure, shortened: as §1

Fedratinib + Tozasertib = compound: Cc1cnc(Nc2ccc(OCCN3CCCC3)cc2)nc1Nc1cccc(S(=O)(=O)NC(C)(C)C)c1 [Fedratinib] + Cc1cc(Nc2cc(N3CCN(C)CC3)nc(Sc3ccc(NC(=O)C4CC4)cc3)n2)n[nH]1 [Tozasertib] (partner 0.1 µM)
Procedure, shortened: as §1

Fedratinib + Olaparib = compound: Cc1cnc(Nc2ccc(OCCN3CCCC3)cc2)nc1Nc1cccc(S(=O)(=O)NC(C)(C)C)c1 [Fedratinib] + O=C(c1cc(Cc2n[nH]c(=O)c3ccccc23)ccc1F)N1CCN(C(=O)C2CC2)CC1 [Olaparib] (partner 8 µM)
Procedure, shortened: as §1

Cell Line | relative viability (GW-2580 + Vorinostat; first compound 0.08 µM) | relative viability (GW-2580 + Vorinostat; first compound 0.8 µM) | relative viability (GW-2580 + Vorinostat; first compound 2.53 µM) | relative viability (GW-2580 + Vorinostat; first compound 8 µM) | relative viability (Fedratinib + Luminespib; first compound 0.1 µM) | relative viability (Fedratinib + Luminespib; first compound 0.3162 µM) | relative viability (Fedratinib + Luminespib; first compound 1 µM) | relative viability (Fedratinib + OSI-027; first compound 0.1 µM) | relative viability (Fedratinib + OSI-027; first compound 0.3162 µM) | relative viability (Fedratinib + OSI-027; first compound 1 µM) | relative viability (Fedratinib + Linsitinib; first compound 0.1 µM) | relative viability (Fedratinib + Linsitinib; first compound 0.3162 µM) | relative viability (Fedratinib + Linsitinib; first compound 1 µM) | relative viability (Fedratinib + Tozasertib; first compound 0.1 µM) | relative viability (Fedratinib + Tozasertib; first compound 0.3162 µM) | relative viability (Fedratinib + Tozasertib; first compound 1 µM) | relative viability (Fedratinib + Olaparib; first compound 0.1 µM) | relative viability (Fedratinib + Olaparib; first compound 0.3162 µM) | relative viability (Fedratinib + Olaparib; first compound 1 µM)
LOU-NH91 | 0.925 | 1.03 | 0.801 | 0.943 | 0.323 | 0.4 | 0.33 | 0.669 | 0.72 | 0.664 | 0.844 | 1.08 | 0.831 | 0.388 | 0.73 | 0.64 | 0.847 | 0.941 | 0.91
NCI-H3122 | 1.08 | 1.06 | 1.06 | 1.13 | 0.0769 | 0.0986 | 0.088 | 0.911 | 0.918 | 0.854 | 1.02 | 1.01 | 0.948 | 0.259 | 0.362 | 0.299 | 0.739 | 0.632 | 0.608
HCC-827 | 0.652 | 0.915 | 0.828 | 0.832 | 0.436 | 0.698 | 0.492 | 0.817 | 0.812 | 0.915 | 0.964 | 1.01 | 0.948 | 0.345 | 0.387 | 0.409 | 0.606 | 0.528 | 0.749
SK-LU-1 | 0.924 | 0.918 | 0.648 | 0.734 | 0.181 | 0.19 | 0.16 | 0.307 | 0.35 | 0.289 |  | 0.999 | 1.01 | 0.27 | 0.298 | 0.261 | 0.407 | 0.361 | 0.341
NCI-H1975 | 0.755 | 0.75 | 0.654 | 0.647 | 0.235 | 0.266 | 0.178 | 0.729 | 0.833 | 0.602 | 0.897 | 0.929 | 0.872 | 0.44 | 0.734 | 0.389 | 0.814 | 0.841 | 0.613
NCI-H1651 | 0.516 | 0.636 | 0.534 | 0.555 | 0.764 | 0.716 | 1.09 | 0.707 | 0.653 | 0.62 | 0.976 | 0.954 | 1.01 | 0.537 | 0.616 | 0.623 | 0.173 | 0.169 | 0.169
NCI-H441 | 0.913 | 0.951 | 0.68 | 0.783 | 0.331 | 0.262 | 0.343 | 0.443 | 0.625 | 0.511 | 0.518 | 0.442 | 0.343 | 0.412 | 0.538 | 0.575 | 0.607 | 0.481 | 0.525
LCLC-103H | 0.753 | 0.851 | 0.791 | 0.671 | 0.9 | 0.946 | 0.937 | 0.415 | 0.454 | 0.404 | 1.19 | 1.1 | 0.966 | 0.304 | 0.524 | 0.381 | 0.819 | 0.753 | 0.773
LCLC-97TM1 | 0.806 | 0.74 | 0.659 | 0.684 | 0.85 | 0.758 | 0.7 | 0.715 | 0.504 | 0.452 | 0.151 | 0.192 | 0.203 | 0.175 | 0.213 | 0.19 | 0.588 | 0.386 | 0.428
NCI-H727 | 1.09 | 1.26 | 1.25 | 1.26 | 0.269 | 0.301 | 0.375 | 0.504 | 0.674 | 0.534 | 0.2 | 0.213 | 0.335 | 0.493 | 0.823 | 0.656 | 0.732 | 0.787 | 0.741
NCI-H1355 | 0.701 | 0.656 | 0.529 | 0.697 | 0.59 | 0.702 | 0.696 | 0.323 | 0.437 | 0.258 | 0.684 | 0.822 | 0.796 | 0.325 | 0.593 | 0.421 | 0.771 | 0.817 | 0.699
HOP-62 | 0.736 | 0.73 | 0.539 | 0.731 | 0.958 | 0.924 | 0.908 | 0.849 | 0.647 | 0.719 | 0.837 | 0.975 | 0.884 | 0.289 | 0.362 | 0.358 | 0.712 | 0.352 | 0.518
NCI-H2085 | 0.786 | 0.856 | 0.735 | 0.821 | 0.415 | 0.463 | 0.408 | 0.586 | 0.855 | 0.711 | 0.845 | 0.872 | 0.858 | 0.478 | 0.827 | 0.764 | 0.73 | 0.824 | 0.765
